In patent US20260345584A1, “METHODS AND PHARMACEUTICAL COMPOSITIONS FOR TREATING CHEMOTHERAPY-INDUCED PERIPHERAL NEUROPATHY WITH EG5 INHIBITORS” (UNIVERSITY OF MIAMI, priority 2023, published 2026):

Columns and labels:
[1] = tested on: microtubule detyrosination in keratinocytes; assay: GluTub immunofluorescence of detyrosinated microtubules in zebrafish caudal fin keratinocytes; type: in vivo
Description: (§1) The stock solution was divided into 20-30 μl aliquots and stored at −20 °C until use (maximal 6 months). Immediately prior to use, paclitaxel was diluted in Ringer's solution and added to dechorionated larval zebrafish. The larval fish were placed individually or in small groups into wells of a 12-well plate containing the treatment solutions. The control group was 0.05% DMSO. Plates were incubated at 28.5 °C and protected from light. Treatment lengths are indicated in the Drawings, Description of the Drawings, and Examples where appropriate. […] EMD534085, Eg5 inhibitor (MedChemExpress, Cat. No. HY-15000) was diluted in 100% DMSO to make a 10 mM stock solution and stored at −20 °C. […] The solutions were exchanged every 48 hr.
Larval fish were transferred into […] glass vials and fixed in 4% paraformaldehyde (PFA)/1× Phosphate-buffered saline (PBS) for 1.5 hr at room temperature, with gentle rocking. Following a 5-minute incubation in 1×PBS+0.1% Tween-20 (PBST), zebrafish were permeabilized in 1×PBS+0.1% Triton X-100 for 10-30 min. Larval fish were transferred into 2 ml reaction tubes and incubated in blocking buffer (1×PBST+5% BSA) for 30 min at room temperature, with rocking. Larval fish were further incubated overnight in antibody solution (Millipore Sigma, Cat. No. AB3201, 1:300 rabbit anti-GluTub; Sigma, Cat No. T6793, 1:500 mouse anti-acetylated tubulin) in blocking buffer at 4 °C, on a rotator. The next morning, larval fish were transferred into 6-well plates and washed 4×15 min in 1×PBST at room temperature, with rocking. This was followed by incubation in secondary antibody (goat anti-rabbit Cy5, Abcam, Cat. No. ab97077; goat anti-mouse Cy3, Abcam, Cat. No. ab97035) and 1:10,000 Hoechst 33342 (ThermoFisher Scientific, Cat. No. 62249, 20 mM solution) in blocking buffer for 1 hr at room temperature, with rocking. Fish were covered to avoid bleaching. […]
Fluorescence intensities were measured using the Imaris MATLAB plugin or Fiji. A line was typically placed over the region of interest and the fluorescence automatically quantified. The values were normalized to nuclear (Hoechst33342) fluorescence intensities within the same fish and region to obtain an intensity ratio.
Stabilized microtubules undergo a modification whereby the terminal tyrosine residue was removed, leading to detyrosination (dMT) (Roll-Mecak et al., 2020, Developmental cell 54: 7-20), which was associated with particularly long-term stabilized microtubule populations (Khawaja et al., 1988, The Journal of cell biology 106: 141-149). Exposure of the penultimate glutamate residue can be detected using a GluTub antibody. […]

[2] = tested on: dfMTs in keratinocytes; assay: dfMT fascicle width; type: in vivo, zebrafish; settings: 96 hr
Description: as §1
Larval fish were transferred into […] glass vials and fixed in 4% paraformaldehyde (PFA)/1× Phosphate-buffered saline (PBS) for 1.5 hr at room temperature, with gentle rocking. Following a 5-minute incubation in 1×PBS+0.1% Tween-20 (PBST), zebrafish were permeabilized in 1×PBS+0.1% Triton X-100 for 10-30 min. Larval fish were transferred into 2 ml reaction tubes and incubated in blocking buffer (1×PBST+5% BSA) for 30 min at room temperature, with rocking. […]
dfMT thicknesses (defined as the mean width of a given dfMT) was manually measured at high magnification using the Slice mode in Imaris and the Line tool for measuring the distance between two points. […]

[3] = tested on: Eg5; assay: Eg5 / phospho-Eg5 staining in mouse skin; type: in vivo; settings: single injection, 20 mg/kg; basal and suprabasal keratinocytes
Description: The mice in each cage were randomly allocated to different treatment groups. Food and water were available ad libitum and experiments were performed during the light cycle (7:00 am to 7:00 pm). Animals were euthanized via CO2 asphyxiation, followed by cervical dislocation. […] The animal's husbandry conformed with established NIH and Institutional Animal Care and Use Committee (IACUC) approved protocols.
Paws and back skin were collected at predetermined time points, placed in 10% formalin, and stored overnight at 4 °C. Samples were embedded in paraffin and sectioned at 7 μm, deparaffinized, washed with PBS, and incubated at room temperature for 5 min in 0.1% Triton X-100 in PBS and then blocked for 30 min (5% BSA). Sections were incubated with primary antibody diluted in blocking solution, overnight at 4 °C in a humidity chamber. Following PBS washes, sections were incubated for 1 h at room temperature with a secondary antibody. Tissues were mounted and assessed for staining. Antibodies used were against detyrosinated tubulin Millipore AB3201, p-KIF11 Invitrogen PA5-38647, alpha-tubulin Proteintech 66031-1-Ig, mouse Alexa Fluor 488 Invitrogen A21202, and rabbit Alexa flour 546 Invitrogen A10040. DAPI was used for nuclei counterstaining. […]

Row | SMILES | microtubule detyrosination with Eg5 inhibition ([1]; EMD534085-treated animals, 96 hr) | effect on microtubule fasciculation and detyrosination ([1]; EMD534085 co-administered with 100 nM and 22 μM paclitaxel) | fascicle width of dMTs ([2]; 100 nM paclitaxel) | fascicle width of dMTs ([2]; 22 μM paclitaxel) | total and phospho-Eg5 levels [3]
1 | CN(C)CCNC(=O)NC[C@H]1CC[C@@H]2[C@H](O1)c1cc(C(F)(F)F)ccc1N[C@H]2c1ccccc1 [EMD534085] | not modified when animals were treated with EMD534085 | rescued microtubule fasciculation but not detyrosination | – | – | –
2 | CC(=O)O[C@H]1C(=O)[C@@]2(C)[C@H]([C@H](OC(=O)c3ccccc3)[C@]3(O)C[C@H](OC(=O)[C@H](O)[C@@H](NC(=O)c4ccccc4)c4ccccc4)C(C)=C1C3(C)C)[C@]1(OC(C)=O)CO[C@@H]1C[C@@H]2O [paclitaxel] | – | – | 6.0±0.49 μm | 3.4±0.17 μm | increased total and phospho-Eg5 levels
